From patent US20240317777A1, “NOVEL MACROCYCLIC AMINOPYRAZOLE COMPOUNDS AS CDK2 INHIBITORS” (Accutar Biotechnology Inc., priority 2023, published 2024) come the findings set out here.

Read-outs that look alike come from different tables or passages of the source.

Assay [1] addresses CDK9-CYCLIN T1 (Homo sapiens, UniProt P50750). Nature of the assay: CDK protein kinase inhibition by ADP-Glo assay, CDK9-CYCLIN T1. Format: biochemical. The procedure: (§1) CDK Protein Kinase Inhibition by ADP-Glo Assay
(§2) This ADP-Glo assay measures ADP formed from a kinase reaction and indirectly quantifies the phosphorylation of peptide substrates by the CDK/cyclin protein complexes. The typical assays were carried out in Nanosyn by combining kinase/cyclin complexes, substrates, compounds, and cofactors (ATP and Mg2+) in a well of a 384-well microtiter plate (Corning 3824) and incubating at 22° C. (Table 1). At the end of the incubation, the reaction is quenched, and conversion is detected by luminescence using the Promega ADP-Glo™ Kinase Assay kit (catalog #V9102).
(§3) Final assay buffer mixture contains: • 100 mM HEPES, pH 7.5 • 0.1% BSA • 0.01% Triton X-100 • 1 mM DTT • 5 mM MgCl2 • 10 μM Sodium Orthovanadate • 100 μM Beta-Glycerophosphate • 1000 μM Ultra Pure ATP (provided in the Promega ADP-Glo™ Kinase Assay kit) • 1% DMSO (from compound)
(§4) Upon completion, 5 μL of the ADP Glo reagent was added to each well and the plate was further incubated at room temperature for 45 minutes. 10 uL of the Kinase Detection Reagent was subsequently added to each well. After 10 minutes of incubation, the plate was read and analyzed on the BioTek Synergy microplate reader using BioTek Gen5 software.
(In general: ADP-Glo turns the ADP formed in a reaction into a luminescent signal.)

Assay [2] has as its target CDK1-CYCLIN B (Homo sapiens, UniProt P06493). The assay is described as follows: CDK protein kinase inhibition by ADP-Glo assay, CDK1-CYCLIN B. As to conditions: for IC50: read-out: CDK1-CYCLINB, IC50. Format: biochemical. The procedure: as §1, §2, §3, §4
For assay [3], the system named is Phospho-Rb (Ser807/811) in OVCAR3 cells. Nature of the assay: Phospho-Rb expression inhibition in OVCAR3 cells quantified by In Cell Western. It is filed as cell-based. As to conditions: Homo sapiens, OVCAR-3, 24 hours, read-out: OVCAR-3 pRb IC50. In short, it runs like this:
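In-cell western: after 24 h compound exposure at 37° C, fixed OVCAR3 cells co-stained for pRb Ser807/811 (800 nm channel) and total Rb (680 nm channel), imaged by LI-COR Odyssey.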

In assay [4] the target is CDK2-CYCLIN E1 (Homo sapiens, UniProt P24941). The assay is described as follows: CDK protein kinase inhibition by ADP-Glo assay, CDK2-CYCLIN E1. Format: biochemical. As to conditions: read-out: CDK2-CYCLINE, IC50. The procedure: as §1, §2, §3, §4
Assay [5] deals with CCNE1-amplified OVCAR3 cells. The assay is described as follows: Cell growth inhibition of CCNE1-amplified OVCAR3 cells (CellTiter-Glo). It is filed as cell-based. As to conditions: Homo sapiens, OVCAR-3, 144 h, 6 days. In short, it runs like this:
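Growth read-out was CellTiter-Glo luminescence, taken after 10 min at room temperature at the end of a 6-day compound exposure at 37 °C. Compounds were diluted from DMSO stocks across various concentrations.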
(Cellular ATP, detected with luciferase, serves as a proxy for viable cell number.)

Assay [6] addresses CDK4-CYCLIN D1 (Homo sapiens, UniProt P11802). The assay is described as follows: CDK protein kinase inhibition by ADP-Glo assay, CDK4-CYCLIN D1. It is filed as biochemical. As to conditions: for IC50: read-out: CDK4-CYCLIND1, IC50. The procedure:
as §1, §2, §3, §4

Assay [7] concerns the target CDK6-CYCLIN D3 (Homo sapiens, UniProt Q00534). Nature of the assay: CDK protein kinase inhibition by ADP-Glo assay, CDK6-CYCLIN D3. Format: biochemical. As to conditions: for IC50: read-out: CDK6-CYCLIND3, IC50. On the procedure: as §1, §2, §3, §4
Assay [8] has as its system CCNE1-normal SKOV3 cells. The assay is described as follows: Cell growth inhibition of CCNE1-normal SKOV3 cells (CellTiter-Glo). Format: cell-based. Conditions: Homo sapiens, SK-OV-3, 144 h, 6 days. The procedure: Cell Growth Inhibition of CCNE1-Normal SKOV3 Cells
SKOV3 cells were obtained from American Type Culture Collection (ATCC, HTB-77). SKOV3 cells were seeded in 96-well plates at 1000 cells/well in 90 μl of RPM11640 growth medium containing 10% FBS and 1% Penicillin Streptomycin, and then incubated at 37° C. overnight. The following day, the test compound was administered to the cells by using 1000× compound stock solution prepared in DMSO at various concentrations. 1000× compound stock solution was first diluted in culturing medium to 10x, then 10 uL compound medium was added to each well in the cell plates. After administration of the compound, the cells were then incubated at 37° C. for 6 days. Upon completion, the plates were equilibrated at room temperature for approximately 10 minutes. 100 ul of CellTiter-Glo® Reagent (Promega) was added to each well. The plates were then incubated at room temperature for 10 minutes and luminescence was recorded by EnSpire plate reader (PerkinElmer).

Setting [9] is: Table 35, recombinant CDK kinase.

Chain of CDK4-CYCLIN D1 (P11802 whole entry): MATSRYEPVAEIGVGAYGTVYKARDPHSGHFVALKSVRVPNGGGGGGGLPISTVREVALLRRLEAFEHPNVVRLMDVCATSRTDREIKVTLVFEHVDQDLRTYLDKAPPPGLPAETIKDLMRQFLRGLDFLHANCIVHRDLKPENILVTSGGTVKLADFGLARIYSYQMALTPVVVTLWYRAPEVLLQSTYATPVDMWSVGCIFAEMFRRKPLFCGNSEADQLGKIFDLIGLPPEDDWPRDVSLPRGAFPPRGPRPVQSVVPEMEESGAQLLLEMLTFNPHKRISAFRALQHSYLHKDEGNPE
Chain of CDK4-CYCLIN D1 (P24385 whole entry partner): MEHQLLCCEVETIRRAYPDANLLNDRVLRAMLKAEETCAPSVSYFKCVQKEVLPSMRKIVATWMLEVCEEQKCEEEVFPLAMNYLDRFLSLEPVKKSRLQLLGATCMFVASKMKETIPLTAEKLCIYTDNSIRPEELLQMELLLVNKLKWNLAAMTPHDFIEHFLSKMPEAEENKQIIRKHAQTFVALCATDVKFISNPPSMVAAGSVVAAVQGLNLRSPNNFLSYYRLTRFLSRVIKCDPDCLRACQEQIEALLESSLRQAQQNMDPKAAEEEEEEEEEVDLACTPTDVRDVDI
Chain of CDK6-CYCLIN D3 (Q00534 whole entry): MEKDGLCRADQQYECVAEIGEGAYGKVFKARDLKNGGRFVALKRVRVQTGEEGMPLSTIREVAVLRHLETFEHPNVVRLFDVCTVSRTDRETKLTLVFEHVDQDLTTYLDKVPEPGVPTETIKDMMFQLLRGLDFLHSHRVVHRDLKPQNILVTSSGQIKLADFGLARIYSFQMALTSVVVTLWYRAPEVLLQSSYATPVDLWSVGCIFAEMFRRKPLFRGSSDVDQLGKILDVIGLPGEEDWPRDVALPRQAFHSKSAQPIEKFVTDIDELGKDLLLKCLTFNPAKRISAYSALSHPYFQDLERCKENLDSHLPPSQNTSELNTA
Chain of CDK6-CYCLIN D3 (P30281 whole entry partner): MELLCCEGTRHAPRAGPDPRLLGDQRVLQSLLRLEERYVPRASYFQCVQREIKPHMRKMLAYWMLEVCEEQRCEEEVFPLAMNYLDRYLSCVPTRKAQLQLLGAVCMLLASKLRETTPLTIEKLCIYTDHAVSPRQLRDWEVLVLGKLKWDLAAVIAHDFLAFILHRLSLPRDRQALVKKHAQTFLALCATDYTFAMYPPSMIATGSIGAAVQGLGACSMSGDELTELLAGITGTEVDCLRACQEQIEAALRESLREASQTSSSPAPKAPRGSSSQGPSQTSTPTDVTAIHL
Chain of CDK1-CYCLIN B (P06493 whole entry): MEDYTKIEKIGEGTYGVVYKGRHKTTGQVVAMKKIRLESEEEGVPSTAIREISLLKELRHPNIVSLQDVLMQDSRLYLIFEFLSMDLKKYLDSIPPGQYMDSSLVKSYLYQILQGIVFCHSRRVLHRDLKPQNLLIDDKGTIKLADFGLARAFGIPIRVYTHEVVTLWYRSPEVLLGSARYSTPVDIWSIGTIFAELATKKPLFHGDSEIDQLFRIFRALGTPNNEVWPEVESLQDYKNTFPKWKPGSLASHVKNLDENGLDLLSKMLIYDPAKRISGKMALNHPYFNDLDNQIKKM
Chain of CDK1-CYCLIN B (P14635 whole entry partner): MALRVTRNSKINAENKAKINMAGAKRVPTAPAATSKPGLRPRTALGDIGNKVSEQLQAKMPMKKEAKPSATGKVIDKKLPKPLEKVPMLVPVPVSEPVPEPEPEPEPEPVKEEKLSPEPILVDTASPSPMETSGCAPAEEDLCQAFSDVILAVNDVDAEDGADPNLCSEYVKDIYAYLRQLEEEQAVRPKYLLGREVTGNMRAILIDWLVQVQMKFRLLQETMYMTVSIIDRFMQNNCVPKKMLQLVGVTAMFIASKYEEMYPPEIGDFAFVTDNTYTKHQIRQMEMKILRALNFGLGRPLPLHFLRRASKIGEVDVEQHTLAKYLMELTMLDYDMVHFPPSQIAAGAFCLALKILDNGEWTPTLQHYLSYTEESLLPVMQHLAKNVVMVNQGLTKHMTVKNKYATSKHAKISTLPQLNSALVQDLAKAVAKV
Chain of CDK9-CYCLIN T1 (P50750 whole entry): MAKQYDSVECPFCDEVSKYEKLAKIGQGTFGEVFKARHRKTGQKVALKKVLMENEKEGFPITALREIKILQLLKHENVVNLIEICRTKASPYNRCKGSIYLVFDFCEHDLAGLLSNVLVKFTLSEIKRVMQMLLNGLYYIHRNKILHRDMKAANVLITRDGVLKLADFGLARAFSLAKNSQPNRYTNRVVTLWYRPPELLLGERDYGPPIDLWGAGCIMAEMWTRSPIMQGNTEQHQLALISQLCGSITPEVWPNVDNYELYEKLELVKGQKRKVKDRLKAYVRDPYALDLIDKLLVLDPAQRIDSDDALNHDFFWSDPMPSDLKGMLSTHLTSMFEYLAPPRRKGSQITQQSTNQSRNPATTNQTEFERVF
Chain of CDK9-CYCLIN T1 (O60563 whole entry partner): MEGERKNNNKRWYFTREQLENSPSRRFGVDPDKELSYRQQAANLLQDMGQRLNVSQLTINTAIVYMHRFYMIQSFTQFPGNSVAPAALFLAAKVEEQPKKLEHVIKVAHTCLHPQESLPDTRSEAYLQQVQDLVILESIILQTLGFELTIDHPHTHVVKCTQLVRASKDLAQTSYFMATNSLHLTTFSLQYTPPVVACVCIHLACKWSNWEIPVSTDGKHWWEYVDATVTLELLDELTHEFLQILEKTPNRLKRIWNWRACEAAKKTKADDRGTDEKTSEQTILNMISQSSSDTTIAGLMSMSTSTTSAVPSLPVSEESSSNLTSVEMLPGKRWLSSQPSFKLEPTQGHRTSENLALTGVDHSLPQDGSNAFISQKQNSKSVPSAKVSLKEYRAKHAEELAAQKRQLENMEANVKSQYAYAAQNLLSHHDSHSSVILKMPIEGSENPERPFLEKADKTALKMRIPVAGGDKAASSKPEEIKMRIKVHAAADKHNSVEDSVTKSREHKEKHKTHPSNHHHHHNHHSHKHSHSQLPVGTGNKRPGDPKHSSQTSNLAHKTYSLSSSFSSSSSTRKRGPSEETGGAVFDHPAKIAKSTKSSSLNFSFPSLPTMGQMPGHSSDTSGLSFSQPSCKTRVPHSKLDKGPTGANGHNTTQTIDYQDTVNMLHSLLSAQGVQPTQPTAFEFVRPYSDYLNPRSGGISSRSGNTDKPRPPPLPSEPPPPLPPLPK

In general, IC50 refers to the concentration at which inhibition is half-maximal. On to `[2H]C1([2H])Oc2cc(ccn2)Nc2cc(n[nH]2)[C@H]2CC[C@H](C2)OC(=O)N[C@H]2C[C@H]1C2` [Compound 177, (1^1S,1^3R,7^1R,7^3S,Z)-2^1H-5,10-dioxa-3,8-diaza-4(4,2)-pyridina-2(3,5)-pyrazola-1(1,3)-cyclopentana-7(1,3)-cyclobutanacyclodecaphan-9-one-6,6-d2], for which the half-maximal inhibitory concentration (IC50) is 100 to 500 nM in assay [1] (ADP-Glo, 1000 μM ATP, Table 27, read-out: CDK9-CYCLINT1 IC50); 50 to 100 nM in assay [1] (Table 35, recombinant CDK kinase, read-out: CDK9-CYCLINT1, IC50); 10 to 50 nM in assay [2] (ADP-Glo, 1000 μM ATP, Table 27); 10 to 50 nM in assay [2] (setting [9]); 2 to 10 nM in assay [3]; at most 10 nM in assay [4] (ADP-Glo, 1000 μM ATP, Table 27). The IC50 in assay [4] (setting [9]) was at most 10 nM; in assay [5], 10 to 50 nM; in assay [6] (ADP-Glo, 1000 μM ATP, Table 27), 50 to 100 nM; in assay [6] (setting [9]) it was 10 to 50 nM; in assay [7] (ADP-Glo, 1000 μM ATP, Table 27), 100 to 500 nM; in assay [7] (setting [9]) it was 10 to 50 nM. Further, in assay [1] (CDK2 versus CDK9, Table 28), the “CDK2 Fold selectivity, CDK9” value is “D (D, >20 and ≤50)”. Besides, in assay [1] (Table 36, fold selectivity for CDK2 over CDK9, recombinant CDK kinases), the “CDK2 Fold selectivity against CDK9” value was “D (D, >20 and ≤50)”. Further, the “CDK2 Fold selectivity, CDK1” value in assay [2] (CDK2 versus CDK1, Table 28) is “E (E, <20)”. In addition, the “CDK2 Fold selectivity against CDK1” value in assay [2] (Table 36, fold selectivity for CDK2 over CDK1, recombinant CDK kinases) is reported as “E (E, <20)”. The “CDK2 Fold selectivity, CDK4” value in assay [6] (CDK2 versus CDK4, Table 28) is “D (D, >20 and ≤50)”. The “CDK2 Fold selectivity against CDK4” value in assay [6] (Table 36, fold selectivity for CDK2 over CDK4, recombinant CDK kinases) is on record as “E (E, <20)”. Also, the “CDK2 Fold selectivity, CDK6” value in assay [7] (CDK2 versus CDK6, Table 28) was “D (D, >20 and ≤50)”. The “CDK2 Fold selectivity against CDK6” value in assay [7] (Table 36, fold selectivity for CDK2 over CDK6, recombinant CDK kinases) is listed as “E (E, <20)”.

For the molecule `[2H]C1([2H])CC[C@H](C)NC(=O)O[C@@H]2CC[C@@H](C2)c2cc([nH]n2)Nc2cc(F)nc(c2)O1` [Compound 179, (1^1S,1^3R,9S,Z)-4^6-fluoro-9-methyl-2^1H-5,12-dioxa-3,10-diaza-4(4,2)-pyridina-2(3,5)-pyrazola-1(1,3)-cyclopentanacyclododecaphan-11-one-6,6-d2], the half-inhibitory concentration (IC50) in assay [3] is 10 to 50 nM; in assay [5] it was 50 to 250 nM; in assay [8], over 1250 nM.

With `[2H]C1([2H])CC(F)(F)[C@H](C)NC(=O)O[C@@H]2CC[C@@H](C2)c2cc([nH]n2)Nc2ccnc(c2)O1` [Compound 182, (1^1S,1^3R,9S,Z)-8,8-difluoro-9-methyl-2^1H-5,12-dioxa-3,10-diaza-4(4,2)-pyridina-2(3,5)-pyrazola-1(1,3)-cyclopentanacyclododecaphan-11-one-6,6-d2], the IC50 in assay [3] lay in the range of 2 to 10 nM; in assay [5], 10 to 50 nM; in assay [8] it was 250 to 1250 nM.

As to `C[C@@H]1NC(=O)O[C@@H]2CC[C@@H](C2)c2n[nH]c(c2F)Nc2ccnc(c2)OCCC1(F)F` [Compound 188, (1^1S,1^3R,9S,E)-2^4,8,8-trifluoro-9-methyl-2^1H-5,12-dioxa-3,10-diaza-4(4,2)-pyridina-2(3,5)-pyrazola-1(1,3)-cyclopentanacyclododecaphan-11-one], the half-inhibitory concentration (IC50) in assay [3] was 10 to 50 nM; in assay [5], 50 to 250 nM; in assay [8], over 1250 nM.

Take `C[C@@H]1NC(=O)O[C@@H]2CC[C@@H](C2)c2cc([nH]n2)Nc2cncc(c2)OCCC1(F)F` [Compound 190, (1^1S,1^3R,9S,Z)-8,8-difluoro-9-methyl-2^1H-5,12-dioxa-3,10-diaza-4(3,5)-pyridina-2(3,5)-pyrazola-1(1,3)-cyclopentanacyclododecaphan-11-one]: the concentration for half-maximal inhibition (IC50) lay in the range of 2 to 10 nM in assay [3], 10 to 50 nM in assay [5] and 250 to 1250 nM in assay [8].

On to `C[C@@H]1NC(=O)O[C@@H]2CC[C@@H](C2)c2cc([nH]n2)Nc2cnnc(c2)OCCC1(F)F` [Compound 218, (1^1S,1^3R,9S,Z)-8,8-difluoro-9-methyl-2^1H-5,12-dioxa-3,10-diaza-4(5,3)-pyridazina-2(3,5)-pyrazola-1(1,3)-cyclopentanacyclododecaphan-11-one], for which the IC50 in assay [3] is 10 to 50 nM; in assay [5] it was over 250 nM; in assay [8], over 1250 nM.

`C[C@@H]1NC(=O)O[C@@H]2CC[C@@H](C2)c2cc([nH]n2)Nc2cncc(n2)OCCC1(F)F` [Compound 219, (1^1S,1^3R,9S,Z)-8,8-difluoro-9-methyl-2^1H-5,12-dioxa-3,10-diaza-4(2,6)-pyrazina-2(3,5)-pyrazola-1(1,3)-cyclopentanacyclododecaphan-11-one]: the concentration for half-maximal inhibition (IC50) in assay [3] is at most 2 nM; in assay [5], at most 2 nM; in assay [8], 10 to 50 nM.

Take `C[C@H]1NC(=O)O[C@@H]2CC[C@@H](C2)c2cc([nH]n2)Nc2ccnc(c2)OCCC1(F)F` [Compound 220, (1^1S,1^3R,9R,Z)-8,8-difluoro-9-methyl-2^1H-5,12-dioxa-3,10-diaza-4(4,2)-pyridina-2(3,5)-pyrazola-1(1,3)-cyclopentanacyclododecaphan-11-one]: the IC50 is 2 to 10 nM in assay [3], 10 to 50 nM in assay [5] and 250 to 1250 nM in assay [8].

Take `C[C@H]1NC(=O)O[C@@H]2CC[C@@H](C2)c2n[nH]c(c2F)Nc2ccnc(c2)OCCC1(F)F` [Compound 228, (1^1S,1^3R,9R,E)-2^4,8,8-trifluoro-9-methyl-2^1H-5,12-dioxa-3,10-diaza-4(4,2)-pyridina-2(3,5)-pyrazola-1(1,3)-cyclopentanacyclododecaphan-11-one]: the half-inhibitory concentration (IC50) in assay [3] is 50 to 250 nM; in assay [5], 50 to 250 nM; in assay [8], over 1250 nM.

As to `C[C@@H]1CCCNC(=O)O[C@@H]2CC[C@@H](C2)c2cc(n[nH]2)Nc2ccnc(c2)O1` [compound 11], the figures for the IC50 in assay [3], in assay [5] and in assay [8] were 10 to 50 nM, 50 to 250 nM and over 1250 nM, respectively.

Regarding `O=C1NC23CC(CCc4cc(cc(C(F)F)n4)Nc4cc([nH]n4)[C@H]4CC[C@H](C4)O1)(C2)C3` [compound 20], the values for the concentration for half-maximal inhibition (IC50) in assay [3], in assay [5] and in assay [8] were 10 to 50 nM, 10 to 50 nM and over 1250 nM, respectively.

`O=C1NC23CC(CCOc4cc(cc(C(F)F)n4)Nc4cc([nH]n4)[C@H]4CC[C@H](C4)O1)(C2)C3` [compound 23]: the figures for the IC50 in assay [3], in assay [5] and in assay [8] were at most 2 nM, 2 to 10 nM and 50 to 250 nM, respectively.

As for `C[C@@H]1OCCCNC(=O)O[C@@H]2CC[C@@H](C2)c2cc([nH]n2)Nc2ccnc1c2` [compound 72], the concentration for half-maximal inhibition (IC50) is 10 to 50 nM in assay [3], over 250 nM in assay [5] and over 1250 nM in assay [8].

As for `C[C@H]1CCC2(CC2)NC(=O)O[C@@H]2CC[C@@H](C2)c2cc([nH]n2)Nc2ccnc(c2)O1` [compound 110], the IC50 in assay [3] was 50 to 250 nM; in assay [5], over 250 nM; in assay [8], over 1250 nM.
